Among the data in patent US20220031710A1, “USE OF ERK5 INHIBITORS FOR TREATING GLIOMAS IN PEDIATRIC SUBJECTS” (UNIVERSITY OF PITTSBURGH - OF THE COMMONWEALTH SYSTEM OF …, priority 2019, published 2022) are EC50 values, retold here.

The assay relates to DIPG-007, DIPG-IV, SF8628, and DIPG-13p cells. Kind of assay: Alamar blue viability EC50 dose response in H3K27M DIPG cells. The note with it: Homo sapiens, 96 h, SF8628, DIPG-13p cells, lowest of the ERK5 inhibitors tested. It is filed as cell-based. As for the experimental part: Human Neural Stem Cells (H9 hESC-Derived) were purchased from Invitrogen and grown in DMEM/F12 containing penicillin/streptomycin/amphotericin B (1% vol/vol) supplemented with N2 (2% vol/vol; Invitrogen), EGF (20 ng/ml; Invitrogen), and FGF-2 (20 ng/ml; Invitrogen). DIPG cell lines (all with the H3K27M mutation) SU-DIPG-IV (DIPG-IV), SU-DIPG-13p (DIPG-13p), and HSJD-DIPG-007 (DIPG-007) were grown and passaged in DIPG medium as previously reported (Grasso et al., Nature medicine 2015; 21:555-9; Nagaraja et al., Cancer cell 2017; 31:635-52 e6; Vinci et al., Nature medicine 2018). SF8628 and immortalized NHAs were grown in DMEM (Invitrogen) supplemented with 10% FBS (Invitrogen). All cell lines were confirmed by STR profiling and tested mycoplasma negative by PCR. All tumor-derived cell lines used are described in Table 2.
Direct cell counts were performed using the Countess II FL Automated Cell Counter (ThermoFisher Scientific). Alamar blue viability (ThermoFisher Scientific) and the 5-bromo-2′-deoxyuridine (BrdU) incorporated cell proliferation assay (Cell Signaling Technology Cat #6813) were performed using the manufacturer's standard protocol. EC50 curve analysis was performed using raw fluorescent Alamar blue values that were inputted into PRISM 7.0. Drug concentrations were log 10 transformed and values normalized to percent viability with respect to vehicle treated cells. […]
For orientation: Alamar Blue is a resazurin reagent that responds to reducing activity.

As usually defined, the EC50 is the concentration at which the effect is half-maximal. In turn, `CCOc1cc(C(=O)N2CCC(N3CCN(C)CC3)CC2)ccc1Nc1ncc2c(n1)N(C1CCCC1)c1ccccc1C(=O)N2C` [ERK5-IN-1, 11-cyclopentyl-2-[[2-ethoxy-4-[[4-(4-methyl-1-piperazinyl)-1-piperidinyl]carbonyl]phenyl]amino]-5,11-dihydro-5-methyl-6H-pyrimido[4,5b][1,4]benzodiazepin-6-one] registered an EC50 of 500 to 1000 nM.
